Experimental findings from ChEMBL document CHEMBL5528070, “Design and Synthesis of Dual-Target Inhibitors Targeting Androgen Receptors and Glucocorticoid Receptors to Overcome Antiandrogen Resistance in Castration-Resistant Prostate Cancer” (J Med Chem, 2024) are described below.

pIC50: −log10 of the molar value.

In data set [1] the target is T1, Androgen receptor (Homo sapiens, UniProt P10275).
T1 sequence (P10275 whole entry): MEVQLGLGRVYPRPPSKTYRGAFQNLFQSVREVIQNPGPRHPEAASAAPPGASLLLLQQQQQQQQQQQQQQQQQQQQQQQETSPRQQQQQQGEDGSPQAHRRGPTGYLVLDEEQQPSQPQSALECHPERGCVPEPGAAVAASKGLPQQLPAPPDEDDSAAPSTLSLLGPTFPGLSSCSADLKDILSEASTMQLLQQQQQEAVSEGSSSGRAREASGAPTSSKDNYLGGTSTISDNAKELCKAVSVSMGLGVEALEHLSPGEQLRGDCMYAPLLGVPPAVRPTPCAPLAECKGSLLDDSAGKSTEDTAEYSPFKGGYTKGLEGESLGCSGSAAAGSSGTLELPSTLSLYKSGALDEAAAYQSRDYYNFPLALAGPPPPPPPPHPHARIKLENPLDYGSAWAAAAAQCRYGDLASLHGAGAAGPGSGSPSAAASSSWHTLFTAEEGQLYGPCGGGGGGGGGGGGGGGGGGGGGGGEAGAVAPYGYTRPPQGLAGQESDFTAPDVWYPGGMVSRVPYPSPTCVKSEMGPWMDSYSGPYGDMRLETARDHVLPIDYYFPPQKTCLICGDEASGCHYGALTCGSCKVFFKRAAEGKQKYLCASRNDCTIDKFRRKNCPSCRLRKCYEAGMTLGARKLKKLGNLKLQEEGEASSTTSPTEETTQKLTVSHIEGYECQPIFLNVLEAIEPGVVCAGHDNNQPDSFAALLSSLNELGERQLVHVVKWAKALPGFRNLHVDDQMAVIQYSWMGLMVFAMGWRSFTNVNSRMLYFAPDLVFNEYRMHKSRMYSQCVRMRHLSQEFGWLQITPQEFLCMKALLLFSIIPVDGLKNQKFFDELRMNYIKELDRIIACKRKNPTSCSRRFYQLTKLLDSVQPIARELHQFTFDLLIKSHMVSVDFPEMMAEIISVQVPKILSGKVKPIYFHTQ

The target in data set [2] is T1, Androgen receptor. As to the kind of experiment: Antagonist activity at androgen receptor in human LNCaP cells incubated for 24 hrs by luminescence based firefly luciferase assay.
In data set [3] the target is T2, Glucocorticoid receptor (Homo sapiens, UniProt P04150).
T2 sequence (P04150 whole entry): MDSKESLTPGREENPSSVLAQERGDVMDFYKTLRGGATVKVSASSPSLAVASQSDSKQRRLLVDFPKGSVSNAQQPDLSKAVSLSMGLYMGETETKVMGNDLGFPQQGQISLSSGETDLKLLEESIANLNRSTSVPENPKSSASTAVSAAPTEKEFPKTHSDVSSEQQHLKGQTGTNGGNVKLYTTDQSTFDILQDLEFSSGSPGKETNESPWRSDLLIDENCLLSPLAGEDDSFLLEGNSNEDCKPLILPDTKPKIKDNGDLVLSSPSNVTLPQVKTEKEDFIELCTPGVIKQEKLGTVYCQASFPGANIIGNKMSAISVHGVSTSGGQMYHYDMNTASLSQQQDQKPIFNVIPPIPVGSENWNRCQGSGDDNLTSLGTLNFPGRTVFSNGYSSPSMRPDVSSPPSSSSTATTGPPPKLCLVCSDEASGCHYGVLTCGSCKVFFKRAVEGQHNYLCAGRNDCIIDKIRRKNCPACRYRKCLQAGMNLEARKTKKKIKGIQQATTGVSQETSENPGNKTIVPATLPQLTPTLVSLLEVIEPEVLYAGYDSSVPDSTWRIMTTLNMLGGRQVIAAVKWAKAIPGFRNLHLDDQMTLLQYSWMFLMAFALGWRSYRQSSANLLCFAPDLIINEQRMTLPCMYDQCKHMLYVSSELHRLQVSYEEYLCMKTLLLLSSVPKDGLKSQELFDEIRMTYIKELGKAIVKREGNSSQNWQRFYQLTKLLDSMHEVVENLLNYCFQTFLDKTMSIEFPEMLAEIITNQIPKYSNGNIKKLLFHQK
Description: (§1) Inhibition of glucocorticoid receptor transcription in human PC-3 cells cotransfected with MMTV-luc and renilla plasmid at incubated for 24 hrs by Dual luciferase assay

For the next data set, the system named is LNCaP. The data set can be described thus: Antiproliferative activity against human LNCaP cells assessed as reduction in cell viability measured after 72 hrs by CCK-8 method.
For the next data set, the system named is LNCaP C4-2. As to the kind of experiment: Antiproliferative activity against human C4-2 cells assessed as reduction in cell viability measured after 72 hrs by CCK-8 method. The settings on record: LNCaP C4-2, 72 h. On the technique in general: Formazan colour is commonly taken as a measure of viable cells.
The test system of a further data set is DU-145. As to the kind of experiment: Antiproliferative activity against human DU-145 cells assessed as reduction in cell viability measured after 72 hrs by CCK-8 method. The settings on record: DU-145, 72 h.
For a further data set, the system named is PC-3. The data set can be described thus: Antiproliferative activity against human PC-3 cells assessed as reduction in cell viability measured after 72 hrs by CCK-8 method. The settings on record: PC-3, 72 h.
Data set [4] is described as follows: Antiproliferative activity against African green monkey COS-7 cells assessed as reduction in cell viability measured after 72 hrs by CCK-8 method. The conditions noted are these: chlorocebus aethiops.
The next data set concerns CWR22R. The data set can be described thus: Antiproliferative activity against human 22Rv1 cells assessed as reduction in cell viability measured after 72 hrs by CCK-8 method. The settings on record: 22Rv1, 72 h.
Data set [5] concerns the target T2, Glucocorticoid receptor. The settings on record: pc-3.
Description: as §1

Usually pIC50 stands for the negative decadic logarithm of the IC50, by convention in mol/L. `CCOC(=O)c1ccc(NC(=O)c2cccc(S(=O)(=O)N3CCCc4ccccc43)c2)s1` gave a pIC50 at Androgen receptor [1] of 5.77.

Take `CCc1cccc(NS(=O)(=O)c2cc3c4c(c2)CCC(=O)N4CCC3)c1`: the pIC50 at Androgen receptor [2] was 6.40.

Consider `CCOC(=O)c1ccc(NC(=O)c2ccc(S(=O)(=O)Nc3ccc(C)cc3)cc2)s1`, for which, on Androgen receptor [1], the pIC50 is 6.92.

As for `O=C(Nc1ccc(C(=O)NC2CC2)s1)c1cccc(S(=O)(=O)N2CCCc3ccccc32)c1`, at Androgen receptor [1], the pIC50 is 6.70.

In the case of `CCOC(=O)c1ccc(NC(=O)c2cccc(S(=O)(=O)Nc3ccc4ccccc4c3)c2)s1`, the pIC50 at Glucocorticoid receptor [3] is below 5.30.

As for `Cc1ccc(NC(=O)c2ccc(NC(=O)c3ccc(S(=O)(=O)N4CCCc5ccccc54)cc3)s2)cc1`, on Androgen receptor [1], the pIC50 was below 5.30.

Turning to `O=C(Nc1ccc(C(=O)NC23C[C@H]4C[C@H](C2)C[C@@H](C3)C4)s1)c1cccc(S(=O)(=O)N2CCCc3ccccc32)c1`, the pIC50 against Androgen receptor [1] is 6.92.

As a reminder, the CC50 is the concentration at which the toxic effect on the cells reaches its halfway point. For `CNC(=O)c1ccc(N2C(=S)N(c3cnc(C#N)c(C(F)(F)F)c3)C(=O)C23CCC3)cc1F` [APALUTAMIDE], the CC50 is 9.72 µM in the data set with LNCaP; 41.7 µM in the data set on LNCaP C4-2; above 50 µM in the data set on DU-145; above 50 µM with PC-3; above 50 µM with CWR22R. In addition, the CC50 at 72 h in data set [4] was above 50 µM.

Turning to `CC(O)c1cc(C(=O)N[C@@H](C)Cn2ccc(-c3ccc(C#N)c(Cl)c3)n2)n[nH]1` (stereo not given in full) [DAROLUTAMIDE], the CC50 in the data set with LNCaP is 7.04 µM; with LNCaP C4-2, 18.8 µM; with DU-145, above 50 µM; with PC-3, above 50 µM; with CWR22R it was above 50 µM. Further, the CC50 at 72 h in data set [4] is above 50 µM.

For `CNC(=O)c1ccc(N2C(=S)N(c3ccc(C#N)c(C(F)(F)F)c3)C(=O)C2(C)C)cc1F` [ENZALUTAMIDE], on Glucocorticoid receptor [5], the IC50 entry is “Not Active”.
